Data reported in patent US6692754B1, “Cosmetic composition” (Kyowa Hakko Kogyo Co., Ltd., priority 1999, dated 2004).

What was measured:
[1] = tested on: skin of cubital fossa of healthy female panelists; experiment: Evaluation of moisture retention function (1): continuous application, skin conductivity (SKICON-200); assay type: in vivo, human
Experimental: Change in the moisture retention function by continuous use was examined for the evaluation of the skin quality-improving effect of Compositions (1)-(8) prepared in Examples 1-8. The compositions are applied to the test part/cubital fossa of 4 healthy female panelists in 23-28 years old in an amount of 2 μl/cm^2 twice a day in the morning and evening for 3 weeks or 2 months. Moisture content in the test part before the application of the cosmetic composition was measured in the morning with the elapse of time. The probe was contacted vertically on the test part, and the skin conductivity (=moisture content) was assayed with SKICON-200 (manufactured by IBS) as a measuring machine. When the measured value is high, it means that the moisture content is high. Change in the skin conductivity (relative conductivity) on the test part was calculated according to the following formula 3, as a relative value to the change in the conductivity on the non-treated part. [formula]

[2] = tested on: epidermal keratinized cells derived from human neonate; experiment: Human epidermal cell proliferation activity (MTT method); assay type: cell-based; settings: for Epidermal Cell Proliferation Activity: 4 days, 0 mM = 100
Experimental: The human epidermal cell proliferation activity was assayed according to MTT method [Cell Culture III, 4477-4482 (1984)] by incorporating 3-(4,5-dimethylthiazol-2-yl)-2,5-diphenyltetrazolium bromide (MTT) into cells and measuring the resultant MTT formazan by colorimetry at the wave length of 570 nm (Reference, 650 nm).
That is, epidermal keratinized cells derived from human neonate (Sanko Junyaku Co., Ltd.) was cultivated in KGM medium (Sanko Junyaku Co., Ltd.) in an atmosphere of 5% CO2 at 37° C. by the stationary phase, mixed with Hyp and N-Acetyl-Hyp and cultivated for 4 days. Then, the culture broth was mixed with 1/10 volume of 5 mg/ml MTT reagent in a phosphate buffer (pH 7.4, free of calcium and magnesium), and cultivated in an atmosphere of 5% CO2 at 37° C. for 4 hours. After removing the medium, MTT formazan in the cell was extracted with isopropanol containing 0.4 mol/L hydrochloric acid, and the absorbance at 570 nm was measured in comparison with that of 630 nm.

mouse epidermal cells = experiment: Mouse epidermal cell proliferation activity (MTT); assay type: cell-based, C3H mouse; settings: for Epidermal Cell Proliferation Activity: 6 days, 0 μM = 100
Experimental: Epidermis was peeled from 3 days old C3H mouse according to Method of Tanigaki, et al., [The Japanese Journal of Dermatology, 1145-1152 (1989)].
The epidermis was treated with 0.25% trypsin and centrifuged at 1500 rpm for 5 minutes to obtain the cells. The cells were inoculated onto DMEM medium containing 10% fetal bovine serum and cultivated at 37° C. for 1 day to give the mouse epidermal cells.
The mouse epidermal cells were cultivated on MCDB 153 medium free of serum containing the test compound (Hyp or N-Acetyl-Hyp) for 6 days, mixed with 1/10 volume of 5 mg/ml MTT reagent in phosphate buffer (pH 7.4, free of calcium and magnesium), and then cultivated in an atmosphere of 5% CO2 at 37° C. for 4 hours. After removing the medium, MTT formazan in the cell was extracted with isopropanol containing 0.4 mol/L hydrochloric acid, and the absorbance at 570 nm was measured in comparison with that of 630 nm.

[3] = tested on: Fibroblast derived from human neonate; experiment: Collagen synthesis promotion activity in human fibroblast (3H-glycine incorporation, collagenase digestion); assay type: cell-based; settings: for Collagen Synthetic Promotion Activity: 72 hours, relative to control (0 mM = 100); for Collagen synthetic promotion activity (in words): human fibroblast
Experimental: Assay of synthetic collagen was conducted by the following method according to “Experimental Method of Collagen” (Written by Nagai, et al., Kodansha Scientific).
Fibroblast derived from human neonate (Sanko Junyaku Co., Ltd.) was cultivated in DMEM medium [Virology, 8, 396 (1959)] containing 10% fetal bovine serum under conditions of 5% CO2 at 37° C. by the stationary phase. ^3H marked glycine and a test compound was added thereto, and further cultivated for 72 hours. DMEM medium was prepared by mixing Dulbecco's Modified Eagle's Medium “Nissui” (2) (manufactured by Nissui Pharmaceutical) with 4 mmol/L glutamine, an optimum dose of sodium hydrogencarbonate, 10 mmol/L HEPES, 50 U/ml penicillin G potassium, 50 μg/ml streptomycin and 10% fetal bovine serum.
To the resultant culture broth was added 500 μmol/L phenylmethanesulfonyl fluoride (PMSF), and the cells and medium were recovered, crashed with a sonicater and the protein was extracted.
To the extract were added 100 μmol/L bovine serum albumin (BSA) and 10% trichloroacetic acid (TCA), and the resultant mixture was centrifuged at 3000 rpm for 5 minutes to recover the precipitate.
To the precipitate was added 0.2 mol/L sodium hydroxide at a density of 8 μl per 1 cm^2 of the bottom area of culture vessel used for said cultivation, and the resultant mixture was neutralized with an equivalent amount of 1 mol/L phosphate buffer.
To 100 μl of the resultant protein solution were added 25 mmol/L calcium chloride (10 μmol/L), 62.5 mmol/L N-ethylmaleimide (20 μmol/L) and 20 units of collagenase (manufactured by Wako Pure Chemical Industries, Ltd.; for analyzing the collagen), and the resultant mixture was allowed to react at 37° C. for 90 minutes.
The reaction mixture was filtered with an ultrafilter (molecular weight: 10,000), and the protein fraction of the filtrate was subjected to radiation activity (CDP) assay, which was assigned as freshly prepared collagen. The radiation activity (NCDP) of the non-filtered protein fraction was assayed, and collagen synthetic ratio was calculated according to the following formula 1.
Relative collagen synthetic promotion activity (change in the collagen synthesis) was calculated according to the following formula 2, comparing with the relative value of the collagen synthetic ratio of the test compounds against control. [formula] [formula]

[4] = tested on: skin of cubital fossa of healthy female panelists; experiment: Evaluation of moisture retention function (2): single application, skin conductivity; assay type: in vivo, human
Experimental: Concentration dependency on moisture retention effect of N-Acetyl-Hyp was evaluated by the single application. The moisture retention was assayed on the test part/cubital fossa of 12 healthy female panelists in 23-32 years old, and each of the test compositions was applied thereto in an amount of 2 μl/cm^2 and allowed to leave. Three hours later, the moisture content of the test part was measured, and the moisture retention effect was evaluated in terms of the relative conductivity when the moisture content before the application was defined as 100%.

O=C(O)[C@@H]1C[C@@H](O)CN1 [Hyp, trans-4-hydroxy-L-proline]
Skin moisture content / moisture retention function on continuous application (in words) [1]: an improvement in the moisture retention function was observed | Concentration dependence of proliferation activity [2]: Proliferation activity depending on the concentration was found | Epidermal cells proliferation activity (in words) [2]: observed | Epidermal Cell Proliferation Activity ([2]; 10 mM): 111.6 | Epidermal Cell Proliferation Activity ([2]; 100 mM): 135.1 | Epidermal proliferation activity (in words) (mouse epidermal cells): found | Epidermal Cell Proliferation Activity (mouse epidermal cells; 1 μM): 88.6 | Epidermal Cell Proliferation Activity (mouse epidermal cells; 3 μM): 107.5 | Epidermal Cell Proliferation Activity (mouse epidermal cells; 10 μM): 126 | Collagen Synthetic Promotion Activity ([3]; 0.1 mM test compound): 108.3 | Collagen Synthetic Promotion Activity ([3]; 1 mM test compound): 117.1 | Collagen synthetic promotion activity (in words) [3]: observed

CC(=O)N1C[C@H](O)C[C@H]1C(=O)O [N-Acetyl-Hyp, N-acetyl-trans-4-hydroxy-L-proline]
Relative Conductivity ([4]; 1% N-Acetyl-Hyp, single application 2 μl/cm2, three hours later, before application = 100%): 100% | Relative Conductivity ([4]; 3% N-Acetyl-Hyp, single application, three hours later): 129% | Relative Conductivity ([4]; 5% N-Acetyl-Hyp, single application, three hours later): 186% | Relative Conductivity ([4]; 10% N-Acetyl-Hyp, single application, three hours later): 189% | Moisture retention effect by single treatment (in words) ([4]; single treatment): concentration dependent-moisture retention effect | Moisture retention improving effect compared with collagen [1]: an improving effect exceeding that of collagen was observed | Skin moisture content / moisture retention function on continuous application (in words) [1]: an improvement in the moisture retention function was observed | Epidermal cells proliferation activity (in words) [2]: observed | Epidermal Cell Proliferation Activity ([2]; 10 mM): 108.7 | Epidermal Cell Proliferation Activity ([2]; 100 mM): 85.9 | Epidermal proliferation activity (in words) (mouse epidermal cells): found | Epidermal Cell Proliferation Activity (mouse epidermal cells; 1 μM): 110.7 | Epidermal Cell Proliferation Activity (mouse epidermal cells; 3 μM): 118.2 | Epidermal Cell Proliferation Activity (mouse epidermal cells; 10 μM): 121.9 | Collagen Synthetic Promotion Activity ([3]; 0.1 mM test compound): 121.1 | Collagen Synthetic Promotion Activity ([3]; 1 mM test compound): 119.7 | Collagen synthetic promotion activity (in words) [3]: observed
